System: A375 human melanoma xenografts
Experiment: Example 9 efficacy study Part II in A375 human melanoma xenografts (tumor volume, T/C, TGI)
Format: in vivo, BALB/c nude mice
Settings: 10 mg/kg, p.o., BID × 14 days; for Tumor Size on PG-D14: Mean ± SEM; for TGI (Tumor Growth Inhibition): PG-D14; for T/C: PG-D14, treated/control average tumor volume
Description: For efficacy study Part II, agents were tested in the A375 human melanoma xenografts model. Compound 133, Compound 144 and Compound 198 were administered to BALB/c nude mice bearing A375 xenografts from day 0 and dosed twice a day (BID) for 14 days. Compound 133, Compound 144 and Compound 198 were dosed at 10 mg/kg via p.o..
The A375 tumor cells were maintained in vitro in DMEM medium supplemented with […] and 1% Penicillin-Streptomycin at 37° C. in an atmosphere of 5% CO2 in air. The tumor cells were routinely subcultured twice weekly. The cells growing in an exponential growth phase were harvested and counted for tumor inoculation.
Each mouse was inoculated subcutaneously at the right flank with A375 cells (5×10^6) in 0.2 mL of PBS supplemented with Matrigel (PBS: Matrigel=1:1) for tumor development. Animals were grouped for the treatment when the average tumor volume reached 243 mm^3 for efficacy study part I and 413 mm^3 for the PK and PD study part I on day 15, and 271 mm^3 for efficacy part II and 443 mm^3 for the PK and PD part II on day 18, and 463 mm^3 for the PK and PD study part III on day 21. The test articles administration and the animal numbers in each group are shown in the above experimental tables.
Prior to the onset of drug treatment, mice were measured for tumor size in two dimensions using a caliper, and the tumor volume (mm^3) was calculated using formula V=0.5 a×b^2 where a and b are the long and short diameters of the tumor in mm, respectively. Mice were randomized into different treatment groups based on the tumor volume.
The major endpoint was to see if the tumor growth could be delayed or mice could be cured. The tumor size was then used for calculations of T/C value. The T/C value (in percent) is an indication of antitumor effectiveness; T and C are the mean volumes of the treated and control groups, respectively on specified day.
TGI was calculated for each group using the formula: TGI (%)=[1−(Ti−T0)/(Ci−C0)]×100; Ti is the average tumor volume of a treatment group on a given day, To is the average tumor volume of the treatment group on the day of treatment start, Ci is the average tumor volume of the vehicle control group on the same day with Ti, and C0 is the average tumor volume of the vehicle group on the day of treatment start.

SMILES | Tumor Volume Trace Over Time (Day 0, Mean ± SEM) [mm^3] | Tumor Volume Trace Over Time (Day 4, Mean ± SEM) [mm^3] | Tumor Volume Trace Over Time (Day 7, Mean ± SEM) [mm^3] | Tumor Volume Trace Over Time (Day 11, Mean ± SEM) [mm^3] | Tumor Volume Trace Over Time (Day 14, Mean ± SEM) [mm^3] | Tumor Size on PG-D14 [mm^3] | TGI (Tumor Growth Inhibition) [%] | T/C [%]
Cn1nc(N2CCC(=O)NC2=O)c2cc(F)c(N3CC4(CC(N5CCC6(CC5)C[C@@H](n5cnc7ccc(Oc8c(F)ccc(NS(=O)(=O)N9CC[C@@H](F)C9)c8C#N)cc7c5=O)CO6)C4)C3)cc21 [Compound 133, (3R)-N-[2-cyano-3-[3-[(3R)-8-[2-[3-(2,4-dioxohexahydropyrimidin-1-yl)-5-fluoro-1-methyl-indazol-6-yl]-2-azaspiro[3.3]heptan-6-yl]-1-oxa-8-azaspiro[4.5]decan-3-yl]-4-oxo-quinazolin-6-yl]oxy-4-fluoro-phenyl]-3-fluoro-pyrrolidine-1-sulfonamide] | 271 | 193 | 99 | 71 | 32 | 32 ± 7 | 125.20 | 2.65
CO[C@@H]1CCN(S(=O)(=O)Nc2ccc(F)c(Oc3ccc4ncn([C@H]5COC6(CCN(C7CC8(C7)CN(c7cc9c(cc7F)c(N7CCC(=O)NC7=O)nn9C)C8)CC6)C5)c(=O)c4c3)c2C#N)C1 [Compound 144, (3R)-N-[2-cyano-3-[3-[(3R)-8-[2-[3-(2,4-dioxohexahydropyrimidin-1-yl)-5-fluoro-1-methyl-indazol-6-yl]-2-azaspiro[3.3]heptan-6-yl]-1-oxa-8-azaspiro[4.5]decan-3-yl]-4-oxo-quinazolin-6-yl]oxy-4-fluoro-phenyl]-3-methoxy-pyrrolidine-1-sulfonamide] | 271 | 167 | 79 | 51 | 28 | 28 ± 5 | 125.70 | 2.27
CCN(C)S(=O)(=O)Nc1ccc(F)c(Oc2ccc3ncn(C4CC5(CCN(C6CC7(CCN(c8cc9c(cc8F)c(N8CCC(=O)NC8=O)nn9C)CC7)C6)CC5)C4)c(=O)c3c2)c1C#N (stereo not drawn) [Compound 198, 6-[2-cyano-3-[[ethyl(methyl)sulfamoyl]amino]-6-fluoro-phenoxy]-3-[7-[7-[3-(2,4-dioxohexahydropyrimidin-1-yl)-5-fluoro-1-methyl-indazol-6-yl]-7-azaspiro[3.5]nonan-2-yl]-7-azaspiro[3.5]nonan-2-yl]-4-oxo-quinazoline] | 271 | 192 | 93 | 60 | 58 | 58 ± 13 | 122.45 | 4.79
